Measurements published in patent US10052330B2, “Substituted pyrido[3,4-b]pyrazines as Syk inhibitors” (HUTCHISON MEDIPHARMA LIMITED, priority 2011, dated 2018).
pIC50: −log10 of the molar value.

Legend:
[1] = target: Syk kinase (Homo sapiens, UniProt P43405); experiment: Syk kinase enzymatic assay (Kit-Tyr 2 Peptide); format: biochemical; conditions: 8 concentrations, 1 μM down to 0.0003 μM; upper bound of each range is 'less than'; read-out: IC50: Enzymatic Activity (Syk kinase)
[2] = tested on: RBL-2H3 cells; experiment: IgE-induced Beta-hexosaminidase secretion in RBL-2H3 cells; format: cell-based; conditions: Rattus norvegicus, RBL-2H3, RBL-2H3 cells sensitized with SPE-7, stimulated with DNP-BSA; upper bound of each range is 'less than'; read-out: IC50, IgE-induced Beta-hexosaminidase secretion

Row | Structure (SMILES) | pIC50 [1] | pIC50 [2]
1 | Clc1cccc(-c2cc3nccnc3c(NCC3CCCNC3)n2)c1 (stereo not shown) [Compound 24] | 6.00 to 7.00 | 6.00 to 7.00
2 | c1cnc2c(NCC3CCCNC3)nc(-c3cn[nH]c3)cc2n1 (stereo not shown) [Compound 25] | 6.00 to 7.00 | 6.00 to 7.00
3 | COc1ccc(-c2cc3nccnc3c(NCC3CCCNC3)n2)cc1OC (stereo not shown) [Compound 26] | 7.00 to 9.00 | 6.00 to 7.00
4 | NC1CCN(c2nc(-c3ccc(N4CCOCC4)cc3)cc3nccnc23)C1 (stereo not shown) [Compound 28] | 6.00 to 7.00 | 6.00 to 7.00
5 | COc1ccc(-c2cc3nccnc3c(NC[C@H]3CCCNC3)n2)cc1OC [Compound 33] | 7.00 to 9.00 | 6.00 to 7.00
6 | c1cnc2c(NCC3CCNCC3)nc(-c3ccc(N4CCOCC4)cc3)cc2n1 [Compound 37] | 6.00 to 7.00 | 6.00 to 7.00
7 | c1cnc2c(N[C@@H]3CCNC3)nc(-c3ccc(N4CCOCC4)cc3)cc2n1 [Compound 39] | 6.00 to 7.00 | 6.00 to 7.00
8 | Cc1ccc(-c2cc3nccnc3c(NC[C@H]3CCCNC3)n2)cc1 [Compound 40] | 7.00 to 9.00 | 6.00 to 7.00
9 | Cc1ccc(-c2cc3nccnc3c(NC[C@H]3CCCNC3)n2)cc1F [Compound 41] | 7.00 to 9.00 | 6.00 to 7.00
10 | CC(C)COc1ccc(-c2cc3nccnc3c(NCC3CCCNC3)n2)cc1 (stereo not shown) [Compound 42] | 7.00 to 9.00 | 6.00 to 7.00
11 | CCc1ccc(-c2cc3nccnc3c(NCC3CCCNC3)n2)cc1 (stereo not shown) [Compound 45] | 6.00 to 7.00 | 6.00 to 7.00
12 | CC(C)c1ccc(-c2cc3nccnc3c(NCC3CCCNC3)n2)cc1 (stereo not shown) [Compound 46] | 7.00 to 9.00 | 6.00 to 7.00
13 | CC(C)(C)c1ccc(-c2cc3nccnc3c(NCC3CCCNC3)n2)cc1 (stereo not shown) [Compound 47] | 7.00 to 9.00 | 6.00 to 7.00
14 | CC(C)Oc1ccc(-c2cc3nccnc3c(NCC3CCCNC3)n2)cc1F (stereo not shown) [Compound 52] | 7.00 to 9.00 | 6.00 to 7.00
15 | FC(F)(F)Oc1ccc(-c2cc3nccnc3c(NCC3CCCNC3)n2)cc1 (stereo not shown) [Compound 54] | 7.00 to 9.00 | 6.00 to 7.00
16 | Clc1ccc(-c2cc3nccnc3c(NCC3CCCNC3)n2)cc1 (stereo not shown) [Compound 55] | 7.00 to 9.00 | 6.00 to 7.00
17 | CNc1ccc(-c2cc3nccnc3c(NCC3CCCNC3)n2)cn1 (stereo not shown) [Compound 60] | 7.00 to 9.00 | 6.00 to 7.00
18 | FC(F)(F)c1ccc(-c2cc3nccnc3c(NCC3CCCNC3)n2)cc1 (stereo not shown) [Compound 63] | 7.00 to 9.00 | 6.00 to 7.00

Row | Structure (SMILES) | pIC50 [1] | pIC50 [2]
19 | Oc1ccc(-c2cc3nccnc3c(NC[C@H]3CCCNC3)n2)cc1F [Compound 67] | 7.00 to 9.00 | 6.00 to 7.00
20 | COc1ccc(-c2cc3nccnc3c(NC[C@H]3CCCNC3)n2)c(F)c1 [Compound 68] | 6.00 to 7.00 | 6.00 to 7.00
21 | Cc1ccc(-c2cc3nccnc3c(NC[C@H]3CCCNC3)n2)cn1 [Compound 69] | 6.00 to 7.00 | 6.00 to 7.00
22 | CCN(CC)c1ccc(-c2cc3nccnc3c(NCC3CCCNC3)n2)cc1 (stereo not shown) [Compound 73] | 7.00 to 9.00 | 6.00 to 7.00
23 | Nc1ccc(-c2cc3nccnc3c(NCC3CCCNC3)n2)cc1 (stereo not shown) [Compound 74] | 7.00 to 9.00 | 6.00 to 7.00
24 | Nc1ccc(-c2cc3nccnc3c(NC[C@@H]3CCCNC3)n2)cc1Cl [Compound 75] | 6.00 to 7.00 | 6.00 to 7.00
25 | Cc1ccc(-c2cc3nccnc3c(NC[C@@H]3CCCNC3)n2)cc1Cl [Compound 76] | 6.00 to 7.00 | 6.00 to 7.00
26 | COCCOc1ccc(-c2cc3nccnc3c(NCC3CCCNC3)n2)cc1 (stereo not shown) [Compound 78] | 7.00 to 9.00 | 6.00 to 7.00
27 | CC(C)(C)c1ccc(-c2cc3nccnc3c(NC[C@H]3CCCNC3)n2)cc1 [Compound 79] | 7.00 to 9.00 | 6.00 to 7.00
28 | Cc1ccc(-c2cc3nccnc3c(NC[C@H]3CCCNC3)n2)cc1Cl [Compound 80] | 7.00 to 9.00 | 6.00 to 7.00
29 | CC(C)(C)c1ccc(-c2cc3nccnc3c(NC[C@@H]3CCCNC3)n2)cc1 [Compound 83] | 7.00 to 9.00 | 6.00 to 7.00
30 | CNc1ccc(-c2cc3nccnc3c(NC[C@@H]3CCCNC3)n2)cc1 [Compound 84] | 6.00 to 7.00 | 6.00 to 7.00
31 | Clc1ccc(-c2cc3nccnc3c(NC[C@H]3CCCNC3)n2)cc1 [Compound 85] | 7.00 to 9.00 | 6.00 to 7.00
32 | CC(C)Oc1ccc(-c2cc3nccnc3c(NC[C@H]3CCCNC3)n2)cc1F [Compound 86] | 7.00 to 9.00 | 6.00 to 7.00
33 | c1cnc2c(NC[C@H]3CCCNC3)nc(-c3ccc(N4CCOCC4)nc3)cc2n1 [Compound 87] | 7.00 to 9.00 | 6.00 to 7.00
34 | CC(C)Oc1ccc(-c2cc3nccnc3c(NC[C@@H]3CCCNC3)n2)cc1F [Compound 88] | 6.00 to 7.00 | 6.00 to 7.00
35 | c1cnc2c(NC[C@@H]3CCCNC3)nc(-c3ccc(N4CCOCC4)nc3)cc2n1 [Compound 89] | 6.00 to 7.00 | 6.00 to 7.00
36 | CN(C)c1ccc(-c2cc3nccnc3c(NC[C@H]3CNCCO3)n2)cc1 [Compound 92] | 6.00 to 7.00 | 6.00 to 7.00

More lines, main results first:

Row | pIC50 [1] | Structure (SMILES) | pIC50 [2]
37 | 6.00 to 7.00 | COc1ccc(-c2cc3nccnc3c(NC[C@H]3CNCCO3)n2)cc1F [Compound 95] | 6.00 to 7.00
38 | 6.00 to 7.00 | c1cnc2c(NC[C@H]3CNCCO3)nc(-c3ccc(N4CCOCC4)nc3)cc2n1 [Compound 97] | 6.00 to 7.00
39 | 6.00 to 7.00 | CC(C)Oc1ccc(-c2cc3nccnc3c(NC[C@@H]3CNCCO3)n2)cc1F [Compound 100] | 6.00 to 7.00
40 | 7.00 to 9.00 | CN(C)c1ccc(-c2cc3nccnc3c(NC[C@@H]3CNCCO3)n2)cn1 [Compound 102] | 7.00 to 9.00
41 | 7.00 to 9.00 | c1cnc2c(NC[C@@H]3CNCCO3)nc(-c3ccc(N4CCCC4)nc3)cc2n1 [Compound 103] | 6.00 to 7.00
42 | 6.00 to 7.00 | CN(C)c1ccc(-c2cc3nccnc3c(NC[C@H]3CNCCO3)n2)cn1 [Compound 106] | 6.00 to 7.00
43 | 6.00 to 7.00 | NCC1CCN(c2nc(-c3ccc(N4CCOCC4)cc3)cc3nccnc23)CC1 [Compound 108] | 6.00 to 7.00
44 | 7.00 to 9.00 | Fc1cc(-c2cc3nccnc3c(N3CCC4(CCCNC4)C3)n2)ccc1N1CCOCC1 (stereo not shown) [Compound 109] | 7.00 to 9.00
45 | 7.00 to 9.00 | Cc1cc(-c2cc3nccnc3c(N3CCC4(CCCNC4)C3)n2)ccc1N1CCOCC1 (stereo not shown) [Compound 110] | 7.00 to 9.00
46 | 7.00 to 9.00 | CN(C)c1ccc(-c2cc3nccnc3c(N3CCC4(CCCNC4)C3)n2)cc1 (stereo not shown) [Compound 111] | 7.00 to 9.00
47 | 7.00 to 9.00 | c1cnc2c(N3CCC4(CCCNC4)C3)nc(-c3ccc(N4CCCC4)cc3)cc2n1 (stereo not shown) [Compound 112] | 6.00 to 7.00
48 | 7.00 to 9.00 | c1cnc2c(NC[C@@H]3CNCCO3)nc(-c3ccc(N4CCCC4)cc3)cc2n1 [Compound 114] | 7.00 to 9.00
49 | 6.00 to 7.00 | Cc1cc(-c2cc3nccnc3c(NC[C@H]3CNCCO3)n2)ccc1N1CCOCC1 [Compound 115] | 7.00 to 9.00
50 | 7.00 to 9.00 | c1cnc2c(NC[C@@H]3CCCNC3)nc(-c3ccc(N4CCCC4)cc3)cc2n1 [Compound 119] | 6.00 to 7.00
51 | 7.00 to 9.00 | Cc1cc(-c2cc3nccnc3c(NC[C@@H]3CCCNC3)n2)ccc1N1CCOCC1 [Compound 120] | 6.00 to 7.00
52 | 7.00 to 9.00 | Fc1cc(-c2cc3nccnc3c(NC[C@@H]3CCCNC3)n2)ccc1N1CCOCC1 [Compound 121] | 6.00 to 7.00
53 | 7.00 to 9.00 | CN1CCN(c2ccc(-c3cc4nccnc4c(NC[C@@H]4CCCNC4)n3)cc2)CC1 [Compound 122] | 6.00 to 7.00
